From paper PMC9505538, “P-Glycoprotein (MDR1/ABCB1) Restricts Brain Accumulation of the Novel EGFR Inhibitor EAI045 and Oral Elacridar Coadministration Enhances Its Brain Accumulation and Oral Exposure” (Pharmaceuticals, 2022)

Biological target: T1, human ABCB1 (Homo sapiens, UniProt P08183)
T1 construct: expressed in transfected cells; host or cells: MDCK-II cells, stably transduced, generated in the authors' institute
Assay: Transepithelial transport of EAI045, MDCK-II cells transduced with human ABCB1
Format: in vitro ADME
Settings: for efflux ratio r (relative transport ratio): EAI045 5 μM
Description: Transport of EAI045 (5 μM) across epithelia was tested using cell layers of Madin–Darby Canine Kidney (MDCK-II) cells and derived clones expressing hABCB1, hABCG2, or mAbcg2 cDNA. […] In cells overexpressing hABCB1, there was clear transport of EAI045 in the apical direction (r = 5.5, Figure 1C). […] To evaluate the interaction between hABCG2 and mAbcg2 and EAI045, zosuquidar (5 μM) was added to inhibit any endogenous canine ABCB1. In cells overexpressing hABCG2, the BA transport of EAI045 was somewhat increased relative to the AB transport, resulting in an efflux ratio of 1.4 (Figure 1E).
Figure 1 In vitro transepithelial transport of EAI045 (5 μM) using MCDK-II parental cells (A,B) or transduced with human ABCB1 (C,D), human ABCG2 (E,F), or murine Abcg2 (G,H) cDNA. At t = 0 EAI045 was added in the donor compartment (either apical or basolateral). At 1, 2, and 4 h EAI045 was quantified in the acceptor compartment and the cumulative total transported amount per well was plotted (n = 3). Zosuquidar (5 μM) was added to inhibit the human and/or the endogenous ABCB1, while Ko143 (5 μM) was added to inhibit the human or murine ABCG2. r, relative transport ratio. […] Points, mean; bars, SD. TEXT PRINTED IN THE PICTURE: (A) no label printed: Parental: r = 1.7 | (B) no label printed: Parental + Zos.: r = 1.1 | (C) no label printed: hABCB1: r = 5.5 | (D) no label printed: hABCB1 + Zos.: r = 1.3 | (E) no label printed: hABCG2 + Zos.: r = 1.4 | (F) no label printed: hABCG2 + Zos. + Ko143: r = 1.1 | (G) no label printed: mAbcg2 + Zos.: r = 1.8 | (H) no label printed: mAbcg2 + Zos. + Ko143: r = 1.4
Madin–Darby Canine Kidney (MDCK-II) cells (ECACC 00062107) stably transduced with human (h) ABCB1, hABCG2, or mouse (m) Abcg2 cDNA were generated in our institute between 1998 and 2005. […] In short, cells were allowed to grow an intact monolayer in 3 days, which was monitored with transepithelial electrical resistance (TEER) measurements, both before and after the transport phase. […] Proper functionality of these cell lines was monitored by continual testing with a variety of drug substrates.

T1 sequence (P08183 whole entry): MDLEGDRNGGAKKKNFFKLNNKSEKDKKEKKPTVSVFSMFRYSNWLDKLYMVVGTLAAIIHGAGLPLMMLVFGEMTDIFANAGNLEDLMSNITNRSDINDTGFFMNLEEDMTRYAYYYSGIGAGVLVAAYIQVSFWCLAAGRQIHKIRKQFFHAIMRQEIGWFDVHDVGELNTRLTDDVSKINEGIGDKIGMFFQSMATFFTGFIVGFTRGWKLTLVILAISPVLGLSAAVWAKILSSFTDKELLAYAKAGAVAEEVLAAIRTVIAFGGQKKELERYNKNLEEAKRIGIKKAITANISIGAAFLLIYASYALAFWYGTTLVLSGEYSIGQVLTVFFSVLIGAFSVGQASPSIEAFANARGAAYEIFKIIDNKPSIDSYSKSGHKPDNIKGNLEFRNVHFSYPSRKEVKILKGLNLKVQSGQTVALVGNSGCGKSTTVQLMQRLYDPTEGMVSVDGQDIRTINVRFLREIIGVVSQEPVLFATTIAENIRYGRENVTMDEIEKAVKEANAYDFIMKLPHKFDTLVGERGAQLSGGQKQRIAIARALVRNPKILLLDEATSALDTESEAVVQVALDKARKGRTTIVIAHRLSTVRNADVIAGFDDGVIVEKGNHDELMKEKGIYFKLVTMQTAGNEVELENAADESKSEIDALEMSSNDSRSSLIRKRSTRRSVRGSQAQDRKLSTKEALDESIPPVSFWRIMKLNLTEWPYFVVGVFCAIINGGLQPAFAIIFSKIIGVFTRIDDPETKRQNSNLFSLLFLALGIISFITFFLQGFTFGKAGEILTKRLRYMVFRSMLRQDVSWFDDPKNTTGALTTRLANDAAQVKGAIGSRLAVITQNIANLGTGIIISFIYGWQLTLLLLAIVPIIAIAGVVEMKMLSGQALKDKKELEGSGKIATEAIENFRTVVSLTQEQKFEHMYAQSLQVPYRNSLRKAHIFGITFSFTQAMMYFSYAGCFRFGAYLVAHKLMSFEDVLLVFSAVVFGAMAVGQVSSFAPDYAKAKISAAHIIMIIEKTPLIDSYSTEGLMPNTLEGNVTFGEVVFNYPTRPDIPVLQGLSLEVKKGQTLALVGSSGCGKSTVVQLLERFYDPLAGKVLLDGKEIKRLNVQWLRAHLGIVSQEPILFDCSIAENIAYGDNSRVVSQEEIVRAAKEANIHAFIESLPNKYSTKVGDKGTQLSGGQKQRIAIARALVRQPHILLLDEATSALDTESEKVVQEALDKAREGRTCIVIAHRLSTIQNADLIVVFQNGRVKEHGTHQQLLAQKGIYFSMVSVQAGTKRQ

O=C(Nc1nccs1)C(c1cc(F)ccc1O)N1Cc2ccccc2C1=O (stereo not drawn) [EAI045]
efflux ratio r (relative transport ratio) (hABCB1 + zosuquidar 5 μM): 1.3
efflux ratio r (relative transport ratio) (hABCB1, no inhibitor): 5.5
transport substrate of hABCB1 (in vitro): good transport substrate
